According to paper PMC11460631, “Inhibition of transient receptor potential vanilloid 3 channels by antimalarial hydroxychloroquine alleviates TRPV3-dependent dermatitis” (The Journal of Biological Chemistry, 2024):

Target: T1, TRPV3 F633 alanine mutation (Homo sapiens, UniProt Q8NET8, F633A)
T1 construct: YFP or GFP; expressed in transfected cells; host or cells: HEK293T
T1 sequence (Q8NET8 1-790 F633A): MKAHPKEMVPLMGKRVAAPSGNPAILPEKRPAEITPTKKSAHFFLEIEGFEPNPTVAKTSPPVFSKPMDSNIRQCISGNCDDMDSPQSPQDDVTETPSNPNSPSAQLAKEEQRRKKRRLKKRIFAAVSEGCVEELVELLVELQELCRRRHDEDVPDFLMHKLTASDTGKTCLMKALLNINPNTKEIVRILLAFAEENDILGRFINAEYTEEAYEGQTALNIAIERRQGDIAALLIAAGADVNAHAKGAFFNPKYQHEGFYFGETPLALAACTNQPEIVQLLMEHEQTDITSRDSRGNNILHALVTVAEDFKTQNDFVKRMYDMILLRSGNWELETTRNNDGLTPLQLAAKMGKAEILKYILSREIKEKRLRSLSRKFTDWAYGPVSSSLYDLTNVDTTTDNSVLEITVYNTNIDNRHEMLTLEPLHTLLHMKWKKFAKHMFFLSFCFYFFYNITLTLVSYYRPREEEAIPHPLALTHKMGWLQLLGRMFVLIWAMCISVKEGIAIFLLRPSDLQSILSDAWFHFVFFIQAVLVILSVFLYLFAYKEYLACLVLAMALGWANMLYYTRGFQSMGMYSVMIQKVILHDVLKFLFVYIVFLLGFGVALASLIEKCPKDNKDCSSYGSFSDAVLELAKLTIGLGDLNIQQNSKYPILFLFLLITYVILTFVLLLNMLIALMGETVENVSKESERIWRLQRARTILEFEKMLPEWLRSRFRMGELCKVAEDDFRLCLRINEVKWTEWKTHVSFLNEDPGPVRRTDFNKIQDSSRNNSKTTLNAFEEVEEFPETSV
Test: Whole-cell recording of TRPV3 F633 alanine mutant
Format: cell-based
Conditions: 1 mM 2-APB, ± 80 mV
Source text: As we mentioned above, HCQ may act as a pore blocker of TRPV3. To probe the binding configuration of HCQ to TRPV3, we carried out molecular docking using Rosetta suite (https://rosettacommons.org) ([21]) and validated the docking models with point mutations in TRPV3 (Fig. 4A). […] Furthermore, when we introduced L670A to L591A mutant, we also observed a left shift on the concentration–response curve on this double mutant as compared to L591A mutant (Fig. 4H).
Figure 4 Residues of the pore domain are critical for HCQ inhibition on TRPV3.A, left panel, docking model of HCQ to the pore domain of TRPV3 structure (6uw4). Right panels, top view and side view of the HCQ-binding pocket. B-J, representative whole-cell recording of TRPV3 and mutants in response to 1 mM 2-APB, the mixture of 1 mM 2-APB and concentration gradients of HCQ with the holding potential of ± 80 mV. K, concentration–response curves of HCQ in WT TRPV3 and mutants (n = 3–5 cells). L, quantification of the inhibitory ratio of HCQ (100 μM) on WT, L591A, and N671Q. […]
All data from whole-cell recordings were analyzed in Igor Pro (WaveMetrics). IC50 values were determined by fitting the Hill equation to concentration-response relationships. […]

IC50: 140 ± 10 nM
Structure (SMILES): CCN(CCO)CCCC(C)Nc1ccnc2cc(Cl)ccc12 (stereo not shown) [HCQ, hydroxychloroquine]
